Consider 58 molecules from the RepoRT retention time repository.

The data set in a line: HILIC, Waters ACQUITY UPLC BEH Amide, 100 × 2.1 mm, 1.7 µm; A: water + 0.125% formic acid + 10 mM ammonium formate; B: 5% water + 95% acetonitrile + 0.125% formic acid + 10 mM ammonium formate; gradient (min/%B) 0/100 2/100 7.7/70 9.5/40 10.25/30 12.75/100 17/100. The settings on record: stereoisomer not certain.
Take `CC(C)NCC(O)COc1ccc(COCCOC(C)C)cc1` (stereo not drawn) [Bisoprolol]: the LC retention time was 3.47 min.
For `O=C1c2cccc3c2C(CCC3)CN1C1CN2CCC1CC2` (stereo not drawn) [Palonosetron], the LC retention time was determined as 4.05 min.
With `Cc1ncc(CO)c(CN)c1O` [Pyridoxamine] the figure was 8.1 min.
With `CC1CCCC(O)CCCCCc2cc(O)cc(O)c2C(=O)O1` (stereo not drawn) [Zeranol] the figure was 1.11 min.
On to `Cc1ncc([N+](=O)[O-])n1CCO` [Metronidazole], for which the LC retention time worked out at 1.17 min.
With `O=C(O)CNC(=O)c1cccnc1` [Nicotinoylglycine] the figure was 7.08 min.
In the case of `NC(=O)CCCCC1CCSS1` (stereo not drawn) [Lipoamide], the LC retention time amounted to 1.25 min.
With `NC(Cn1cccn1)C(=O)O` (stereo not drawn) [3-(1-Pyrazolyl)-alanine] the figure was 7.54 min.
In the case of `Nc1ncnc2c1ncn2C1OC(CSCCC(N)C(=O)O)C(O)C1O` (stereo not drawn) [S-Adenosyl-homocysteine], the LC retention time was 8.85 min.
The same measure for `O=C(O)c1cc(N=Nc2ccc(S(=O)(=O)Nc3ccccn3)cc2)ccc1O` [Sulfasalazine]: 2.01 min.
For the molecule `O=C(NCCO[N+](=O)[O-])c1cccnc1` [Nicorandil], the LC retention time is 1.11 min.
On to `OCC1OC(OCC2OC(OC3(CO)OC(CO)C(O)C3O)C(O)C(O)C2O)C(O)C(O)C1O` (stereo not drawn) [Raffinose], for which the LC retention time amounted to 9.17 min.
In the case of `NCCCCN=C(N)N` [Agmatine], the LC retention time was 8.92 min.
With `CN1CCC23c4c5ccc(O)c4OC2C(=O)CCC3C1C5` (stereo not drawn) [Hydromorphone] the figure was 5.22 min; with `CC=CC(=O)N(CC)c1ccccc1C` [Crotamiton], 0.97 min.
The same measure for `CC(C)CCCC(C)C1CCC2C3C(O)C=C4CC(O)CCC4(C)C3CCC12C` (stereo not drawn) [5-Cholesten-3-beta-7-alpha-diol]: 3.36 min; for `O=C(O)CCP(=O)(O)O` [3-Phosphonopropionic acid]: 8.59 min; for `NC(CC(=O)O)C(=O)NC(CCC(=O)O)C(=O)O` (stereo not drawn) [Asp-Glu]: 9.47 min.
The same measure for `CC1OC(OCC2OC(Oc3c(-c4ccc(O)c(O)c4)oc4cc(O)cc(O)c4c3=O)C(O)C(O)C2O)C(O)C(O)C1O` (stereo not drawn) [Rutin]: 6.6 min; for `CN[C@@H](CCCCN)C(=O)O` [N.alpha.-Methyl-L-lysine]: 7.35 min.
`CCC1=C(C)CN(C(=O)NCCc2ccc(S(=O)(=O)NC(=O)NC3CCC(C)CC3)cc2)C1=O` (stereo not drawn) [Glimepiride]: the LC retention time was determined as 1.05 min.
With `O=C(C=Cc1ccc(O)c(O)c1)OC1CC(O)(C(=O)O)CC(O)C1O` (stereo not drawn) [Chlorogenic acid] the figure was 6.68 min; with `Cn1c(N)nc2c(ncn2C2OC(CO)C(O)C2O)c1=O` (stereo not drawn) [1-Methylguanosine], 5.84 min.
With `COCc1c(C(C)C)nc(C(C)C)c(C=CC(O)CC(O)CC(=O)O)c1-c1ccc(F)cc1` (stereo not drawn) [Cerivastatin], the LC retention time came out at 1.18 min.
With `CCCCCCc1ccc(O)cc1O` [4-Hexylresorcinol] the figure was 1.63 min.
As to `Nc1ccn(C2OC(CO)C(O)C2O)c(=S)n1` (stereo not drawn) [2-Thiocytidine], the LC retention time was 5.33 min.
With `CC1(C)OC2COC3(COS(N)(=O)=O)OC(C)(C)OC3C2O1` (stereo not drawn) [Topiramate] the figure was 1.1 min.
With `CC(N)C(O)c1ccccc1` (stereo not drawn) [Phenylpropanolamine] the figure was 5.29 min; with `CS(=O)CCCCC(=NO)SC1OC(CO)C(O)C(O)C1O` (stereo not drawn) [Desulfo Glucoraphanin], 6.61 min; with `NC(=O)N1c2ccccc2C=Cc2ccccc21` [Carbamazepine], 1.21 min.
The same measure for `COc1cc(C(=O)NS(=O)(=O)c2ccccc2C)ccc1Cc1cn(C)c2ccc(NC(=O)OC3CCCC3)cc12` [Zafirlukast]: 1 min; for `CC(C)CC(=O)OC(CC(=O)[O-])C[N+](C)(C)C` [Isovaleryl-L-carnitine]: 5.36 min; for `NCCC(=O)NC(Cc1cnc[nH]1)C(=O)O` (stereo not drawn) [Carnosine]: 9.54 min.
In the case of `CCCCCCCCCCCC(=O)OC(CC(=O)[O-])C[N+](C)(C)C` [Lauroyl-L-carnitine], the LC retention time is 3.63 min.
`O=C1OC(CO)C(O)C(O)C1O` (stereo not drawn) [Gluconolactone]: the LC retention time amounted to 8.15 min.
With `Cc1ncc(COP(=O)(O)O)c(C=O)c1O` [Pyridoxal-5-phosphate] the figure was 7.7 min; with `CC1COc2c(C3(N)CC3)c(F)cc3c(=O)c(C(=O)O)cn1c23` (stereo not drawn) [Pazufloxacin], 2.49 min.
With `COc1cc(C)nc(-n2nc(C)cc2OC)n1` [Mepirizole] the figure was 1.03 min; with `CNC(C)Cc1ccccc1` (stereo not drawn) [Methamphetamine], 3.33 min; with `CCC(C)n1ncn(-c2ccc(N3CCN(c4ccc(OCC5COC(Cn6cncn6)(c6ccc(Cl)cc6Cl)O5)cc4)CC3)cc2)c1=O` (stereo not drawn) [Itraconzaole], 0.97 min.
`NC(Cc1ccc(OP(=O)(O)O)cc1)C(=O)O` (stereo not drawn) [Phosphotyrosine]: the LC retention time came to 9.72 min.
With `c1ncc2[nH]cnc2n1` [Purine] the figure was 2.44 min.
`CC(C)C(O)C(=O)O` (stereo not drawn) [2-Hydroxy-3-methylbutyric acid]: the LC retention time came to 1.29 min.
As for `NC(CS(=O)(=O)O)C(=O)O` (stereo not drawn) [Cysteic acid], the LC retention time was found to be 8.92 min.
With `O=c1ccn(C2CC(O)C(CO)O2)c(=O)[nH]1` (stereo not drawn) [2-Deoxyuridine] the figure was 2.96 min; with `CCN(CC)C(=S)SSC(=S)N(CC)CC` [Disulfiram], 0.93 min.
The same measure for `C#CC1(O)CCC2C3CCC4=CC(=O)CCC4C3CCC21CC` (stereo not drawn) [Levonorgestrel]: 0.99 min; for `C#CC1(O)CCC2C3CCc4cc(O)ccc4C3CCC21C` (stereo not drawn) [Ethynylestradiol]: 0.99 min; for `CN1CCCC1C(=O)O` (stereo not drawn) [N-Methylproline]: 7.11 min.
The same measure for `COC1=C(OC)C(=O)C(CCCCCCCCCCO)=C(C)C1=O` [Idebenone]: 0.96 min.
Consider `C[N+]1(C)CCCC1C(=O)[O-]` (stereo not drawn) [Stachydrine], for which the LC retention time amounted to 7.1 min.
The same measure for `CCOC(=O)C(CCc1ccccc1)NC(C)C(=O)N1C(C(=O)O)CC2CCCC21` (stereo not drawn) [Ramipril]: 1.4 min; for `CC(C)C(=O)NCC(=O)O` [N-Isobutyrylglycine]: 3.6 min.
With `CCC1OC(=O)C(C)C(OC2CC(C)(OC)C(O)C(C)O2)C(C)C(OC2OC(C)CC(N(C)C)C2O)C(C)(OC)CC(C)C(=O)C(C)C(O)C1(C)O` (stereo not drawn) [Clarithromycin], the LC retention time came out at 3 min.
As to `COC1C(CO)OC(n2ccc(N)nc2=O)C1O` (stereo not drawn) [3'-O-Methylcytidine], the LC retention time came out at 5.09 min.
With `C#CC1(O)CCC2C3C(C)CC4=C(CCC(=O)C4)C3CCC21C` (stereo not drawn) [Tibolone] the figure was 1 min.
Take `CS(=O)CCCCC(=NOS(=O)(=O)O)SC1OC(CO)C(O)C(O)C1O` (stereo not drawn) [Glucoraphanin]: the LC retention time was 7.37 min.
`Nc1nc2c(ncn2C2OC(CO)C(O)C2O)c(=O)[nH]1` (stereo not drawn) [Guanosine]: the LC retention time was found to be 7.33 min.
